Assay results taken from ChEMBL document CHEMBL1133263, “A simple polar deacetylated caloporoside derivative is a positive modulator of the GABA(A) chloride channel complex in cortical mammalian neurones” (Bioorg Med Chem Lett, 2000).

Organism: Rattus norvegicus
Experiment: Concentration required reduce reversibly the incidence of both spontaneous excitatory post-synaptic currents and inhibitory post-synaptic currents
Format: functional

SMILES: CCCCCCCCO[C@H]1O[C@@H](CO)[C@@H](O)[C@H](O)[C@H]1O
- Concentration: 100 µM
